Assay results taken from the supplement of paper PMC13380429.

Columns and labels:
Conditions in all cases: 72 h
U2OS [1] = assay: drug sensitivity score (DSS) for viability; higher = more toxic; extreme values may be limits of the assay
Vero E6 [2] = assay: as above
Calu-3 [3] = assay: as above
Caco-2 [4] = assay: as above
HepG2 [5] = assay: as above
U2OS [6] = assay: relative viability EC50 (midpoint between 100% and the lowest measured viability); higher = less toxic
Calu-3 [7] = assay: as above
HepG2 [8] = assay: as above
U2OS [9] = assay: cell viability relative to DMSO; higher = less toxic
Vero E6 [10] = assay: as above
Calu-3 [11] = assay: as above
Caco-2 [12] = assay: as above
HepG2 [13] = assay: as above
Vero E6 [14] = assay: relative viability EC50 (midpoint between 100% and the lowest measured viability); higher = less toxic

Row | Compound | drug sensitivity score (U2OS [1]) | drug sensitivity score (Vero E6 [2]) | drug sensitivity score (Calu-3 [3]) | drug sensitivity score (Caco-2 [4]) | drug sensitivity score (HepG2 [5]) | relative viability EC50 (U2OS [6]) | relative viability EC50 (Calu-3 [7]) | relative viability EC50 (HepG2 [8]) | cell viability (U2OS [9]; 1 nM) | cell viability (U2OS [9]; 10 nM) | cell viability (U2OS [9]; 100 nM) | cell viability (U2OS [9]; 1000 nM) | cell viability (U2OS [9]; 10000 nM) | cell viability (Vero E6 [10]; 1 nM) | cell viability (Vero E6 [10]; 10 nM) | cell viability (Vero E6 [10]; 100 nM) | cell viability (Vero E6 [10]; 1000 nM) | cell viability (Vero E6 [10]; 10000 nM) | cell viability (Calu-3 [11]; 1 nM) | cell viability (Calu-3 [11]; 10 nM) | cell viability (Calu-3 [11]; 100 nM) | cell viability (Calu-3 [11]; 1000 nM) | cell viability (Calu-3 [11]; 10000 nM) | cell viability (Caco-2 [12]; 1 nM) | cell viability (Caco-2 [12]; 10 nM) | cell viability (Caco-2 [12]; 100 nM) | cell viability (Caco-2 [12]; 1000 nM) | cell viability (Caco-2 [12]; 10000 nM) | cell viability (HepG2 [13]; 1 nM) | cell viability (HepG2 [13]; 10 nM) | cell viability (HepG2 [13]; 100 nM) | cell viability (HepG2 [13]; 1000 nM) | cell viability (HepG2 [13]; 10000 nM) | relative viability EC50 (Vero E6 [14])
1 | Cc1c(NC(=O)OC[C@@H]2COCCN2)cn2ncnc(Nc3ccc4c(cnn4Cc4cccc(F)c4)c3)c12 | 1.1 | 3.5 | 8.2 | 3 | 0.5 | > 10 µM | 0.988 µM | > 10 µM | 96.6% | 101% | 99.4% | 96.3% | 79.3% | 98.5% | 103% | 91.7% | 84.1% | 60.7% | 97.2% | 96.4% | 92.4% | 64.5% | 26.4% | 102% | 101% | 85.1% | 88.2% | 69.3% | 89.8% | 104% | 96% | 99.1% | 82.2% | 
2 | Cc1cc(F)c(Nc2ncnc3cc(OCc4ccccc4)ccc23)cc1O | 0.9 | 0.7 | 0.6 | 4 | 0.2 |  | > 10 µM | > 10 µM | 97.9% | 101% | 96.8% | 102% | 72.9% | 99.9% | 103% | 99.3% | 96.2% | 84% | 104% | 95.1% | 89.4% | 104% | 76.9% | 101% | 96.6% | 88.4% | 79.4% | 74% | 105% | 95.5% | 106% | 100% | 85.5% | > 10 µM
3 | OCCNCCCOc1cccc(Cl)c1Cl [2,3-DCPE] | 4.5 | 5 | 0 | 1.5 | 5.1 | 3.21 µM | > 10 µM | 2.96 µM | 105% | 101% | 100% | 101% | 18.1% | 92.5% | 96.1% | 103% | 97.9% | 15.5% | 99.1% | 98.6% | 98.1% | 97.5% | 107% | 93.9% | 105% | 106% | 98.7% | 69.4% | 103% | 96.1% | 89.7% | 97.6% | 13.3% | 2.99 µM
4 | O=C(CCCc1ccc(-c2ccccc2F)cc1)Nc1ccc(O)cc1 [CMPD-1] | 6.3 | 0 | 0.8 | 0.8 | 3.2 | 1.27 µM | > 10 µM | 3.08 µM | 94.9% | 99.4% | 94.2% | 74.8% | 36.6% | 97.2% | 95.3% | 99.6% | 97.6% | 95.5% | 94.2% | 105% | 99% | 88.8% | 86.3% | 95.6% | 92.4% | 97.5% | 112% | 71.9% | 99% | 97.8% | 107% | 99.2% | 42.6% | > 10 µM
5 | CC[C@H](CO)Nc1nc(Nc2cccc(-c3ccccn3)c2)c2ncn(C(C)C)c2n1 [DRF053-(R)] | 0 | 1 | 0.4 | 2.4 | 2.5 | > 10 µM | > 10 µM |  | 102% | 101% | 94.7% | 99.6% | 94.4% | 92% | 92.3% | 92.7% | 89.8% | 81.7% | 94.7% | 94.9% | 90.7% | 104% | 80.3% | 99.6% | 86.9% | 91.2% | 93.2% | 67.4% | 98.8% | 108% | 107% | 94.5% | 66.2% | > 10 µM
6 | Cc1cc([N+](=O)[O-])ccc1NS(=O)(=O)c1cc(Cl)ccc1Cl [FH-535] | 0 | 0.9 | 0 | 3.8 | 3.1 | > 10 µM | > 10 µM |  | 101% | 97.6% | 93.3% | 96.9% | 89.5% | 98.3% | 102% | 94.1% | 92.8% | 79.2% | 104% | 92.4% | 105% | 101% | 93.2% | 107% | 103% | 110% | 87.2% | 60.3% | 100% | 106% | 94.5% | 96.7% | 50.1% | > 10 µM
7 | CCn1c(=O)c(-c2ccc(Cl)cc2Cl)cc2cnc(Nc3ccc(N4CCNCC4)c(F)c3)nc21 [FRAX486] | 4.5 | 5.3 | 0 | 3.9 | 2.6 | 2.01 µM | > 10 µM |  | 103% | 99.8% | 101% | 91.6% | 43% | 97% | 102% | 99.6% | 90.9% | 31.7% | 104% | 100% | 105% | 91.9% | 97.9% | 94.9% | 92.4% | 97.7% | 80% | 63.4% | 96.6% | 97.8% | 93.1% | 99.3% | 51.6% | 2.09 µM
8 | COc1cc2c(cc1-c1c(C)noc1C)ncc1[nH]c(=O)n([C@H](C)c3ccccn3)c12 [I-BET151] | 6.3 | 12.2 | 4.5 | 4.9 | 8.6 | 0.89 µM |  | 0.671 µM | 97.4% | 95.6% | 94.4% | 71.3% | 44.3% | 104% | 105% | 94.6% | 40.5% | 13% | 97.4% | 99.5% | 114% | 75% | 65.3% | 104% | 87.1% | 89.8% | 81% | 56% | 104% | 99.7% | 91.9% | 60.3% | 33.6% | 0.607 µM
9 | CC[C@H]1[C@@H](O)[C@@H]2[C@H](CC[C@]3(C)[C@@H]([C@H](C)CCOS(=O)(=O)O)CC[C@@H]23)[C@@]2(C)CC[C@@H](O)C[C@@H]12 [INT-767] | 0 |  | 0 |  | 0 | > 10 µM | > 10 µM | > 10 µM | 102% | 98.1% | 102% | 101% | 101% |  |  |  |  |  | 110% | 107% | 108% | 105% | 99.5% |  |  |  |  |  | 115% | 118% | 96.2% | 99.4% | 111% | 
10 | COc1ccc(-c2sc(NC(=O)C(C)(C)C)nc2C)cc1S(=O)(=O)Nc1ccc(O)cc1 [PI4KIII-beta-inhibitor-1] | 1.1 | 0 | 2.8 | 1.8 | 0.5 | > 10 µM |  | > 10 µM | 94.9% | 99.6% | 96.7% | 93.1% | 79.1% | 102% | 96.4% | 92.9% | 96.1% | 88.8% | 115% | 102% | 102% | 91.2% | 66.9% | 95.6% | 97% | 91.1% | 90.7% | 74.2% | 105% | 103% | 101% | 90% | 87.6% | > 10 µM
11 | CC(C)(C)n1nc(-c2ccc(Cl)cc2)c2c(N)ncnc21 [PP-2] | 1.4 | 3.5 | 5.4 | 4.2 | 0 | > 10 µM | 1.77 µM | > 10 µM | 93.4% | 98.4% | 96.7% | 89.7% | 77.3% | 99.4% | 93.5% | 102% | 95.6% | 47% | 104% | 104% | 84.9% | 87% | 37% | 92.3% | 98.6% | 100% | 88.2% | 54.2% | 107% | 98% | 92.6% | 103% | 90.7% | 2.49 µM
12 | COc1ccc(F)c(F)c1C(=O)c1cnc(NC2CCN(S(C)(=O)=O)CC2)nc1N [R547] | 10.3 | 10.7 | 9 |  | 16.1 |  |  |  |  |  |  |  |  |  |  |  |  |  |  |  |  |  |  |  |  |  |  |  |  |  |  |  |  | 
13 | O=C(O)CCCO [SODIUM OXYBATE] | 0 | 0 | 0 |  | 0 | > 10 µM | > 10 µM | > 10 µM | 103% | 101% | 103% | 96.4% | 100% | 93.6% | 100% | 99.1% | 102% | 87.2% | 97.3% | 99% | 94.7% | 115% | 112% |  |  |  |  |  | 82.4% | 105% | 92.8% | 90.8% | 110% | > 10 µM
14 | NC(=O)[C@H]1CCS[C@@H]2C[C@]3(CCCN3C(=O)Cc3ccc(NC(=O)COc4ccc(Cl)cc4Cl)cc3)C(=O)N12 [ST-2825] | 2 | 0.5 | 0 | 3.5 | 4.6 |  | > 10 µM | 2.05 µM | 96.4% | 104% | 97.6% | 103% | 55.6% | 101% | 92.2% | 94.8% | 88.1% | 86.6% | 106% | 96.9% | 96.1% | 99.8% | 91.7% | 84.7% | 90.3% | 91.9% | 92.9% | 56% | 96.5% | 101% | 103% | 91.7% | 40.5% | > 10 µM
